{"source": "patent US11839207B1", "about": "“Essential oil-containing formulation for insecticide use, fertilizer application, and/or fertilizer coating” (priority 2019, dated 2023)", "format_in_all_cases": "in vivo", "key": {"[1]": {"test_system": "Culex", "assay": "Arm-in-cage (AIC) repellency test, Culex", "details": "1 ml per 600 cm^2 on forearm", "experimental": "(§1) Additional testing was conducted comparing the inventive formulation to DEET for the purposes of comparing insect repellency. In many insect repellency studies, there is often a lack of side-by-side comparisons for two or more insect repellents. The study conducted in connection with the inventive formulation sought to address this problem by directly comparing the two insect repellents based on the same active contents, i.e., 15% by weight. The study was conducted using both field testing and laboratory conditions. The tested formulation included ethanolic solutions of 15% DEET (m/m) and 15% of the inventive formulation, and the composition tested corresponded to the target composition described above. […] Under laboratory conditions, the efficacy of mosquito repellents is typically evaluated in the so-called “arm-in-cage” (AIC) test. […] In the field, similar endpoints may be determined on the basis of mosquitoes landing or biting on an exposed skin area, usually the lower leg, while the mosquitoes are collected by aspiration allowing for the identification of the mosquito species in a laboratory. […] In the AIC test the protection time of a repellent is assessed by exposing a treated forearm to hungry mosquitoes at regular intervals (grown from larvae and not fed for 12 hours before the test). The cages measured 16″×16″×14″ and were made of clear glass with an opening on the front side. […]"}, "[2]": {"test_system": "mosquitoes", "assay": "Field repellency test, human landing catch (HLC) method", "details": "relative protection percentages shown in the FIGURE", "experimental": "Additional testing was conducted comparing the inventive formulation to DEET for the purposes of comparing insect repellency. In many insect repellency studies, there is often a lack of side-by-side comparisons for two or more insect repellents. The study conducted in connection with the inventive formulation sought to address this problem by directly comparing the two insect repellents based on the same active contents, i.e., 15% by weight. The study was conducted using both field testing and laboratory conditions. […] Under laboratory conditions, the efficacy of mosquito repellents is typically evaluated in the so-called “arm-in-cage” (AIC) test. […] In the field, similar endpoints may be determined on the basis of mosquitoes landing or biting on an exposed skin area, usually the lower leg, while the mosquitoes are collected by aspiration allowing for the identification of the mosquito species in a laboratory. […] The application volume was estimated on the basis of the surface area, calculated as the average of the circumferences just below the knee, the calf and the ankle, multiplied by the length of the lower leg, measured from below the knee to the ankle. […] Raw data was recorded on paper forms. […] The endpoint measured in the experiments was the number of mosquitoes landing on the bare skin during each exposure period. […]"}, "[3]": {"test_system": "Anopheles", "assay": "Arm-in-cage (AIC) repellency test, Anopheles", "details": "1 ml per 600 cm^2 on forearm", "experimental": "as §1"}, "[4]": {"test_system": "Aedes", "assay": "Arm-in-cage (AIC) repellency test, Aedes", "details": "1 ml per 600 cm^2 on forearm", "experimental": "as §1"}}}
{"smiles": "CCN(CC)C(=O)c1cccc(C)c1", "note": "[15% DEET, DEET]", "values": [{"measurement": "median CPT (complete protection time) in the AIC tests", "setting": "[1]", "value": 2, "unit": "h"}, {"measurement": "efficacy in comparative study between AIC test and HLC method in the field", "setting": "[2]", "value": "comparable efficacy"}, {"measurement": "median CPT (complete protection time) in the AIC tests", "setting": "[3]", "value": 2, "unit": "h"}, {"measurement": "median CPT (complete protection time) in the AIC tests", "setting": "[4]", "value": 0.5, "unit": "h"}]}
